From patent publication US8580811B2 (Ligand Pharmaceuticals Incorporated, priority 2005, dated 2013)

Molecular target: T1, human AR (Homo sapiens, UniProt P10275)
T1 construct: expressed in transfected cells; host or cells: COS-1 cells
T1 sequence (P10275 1-920): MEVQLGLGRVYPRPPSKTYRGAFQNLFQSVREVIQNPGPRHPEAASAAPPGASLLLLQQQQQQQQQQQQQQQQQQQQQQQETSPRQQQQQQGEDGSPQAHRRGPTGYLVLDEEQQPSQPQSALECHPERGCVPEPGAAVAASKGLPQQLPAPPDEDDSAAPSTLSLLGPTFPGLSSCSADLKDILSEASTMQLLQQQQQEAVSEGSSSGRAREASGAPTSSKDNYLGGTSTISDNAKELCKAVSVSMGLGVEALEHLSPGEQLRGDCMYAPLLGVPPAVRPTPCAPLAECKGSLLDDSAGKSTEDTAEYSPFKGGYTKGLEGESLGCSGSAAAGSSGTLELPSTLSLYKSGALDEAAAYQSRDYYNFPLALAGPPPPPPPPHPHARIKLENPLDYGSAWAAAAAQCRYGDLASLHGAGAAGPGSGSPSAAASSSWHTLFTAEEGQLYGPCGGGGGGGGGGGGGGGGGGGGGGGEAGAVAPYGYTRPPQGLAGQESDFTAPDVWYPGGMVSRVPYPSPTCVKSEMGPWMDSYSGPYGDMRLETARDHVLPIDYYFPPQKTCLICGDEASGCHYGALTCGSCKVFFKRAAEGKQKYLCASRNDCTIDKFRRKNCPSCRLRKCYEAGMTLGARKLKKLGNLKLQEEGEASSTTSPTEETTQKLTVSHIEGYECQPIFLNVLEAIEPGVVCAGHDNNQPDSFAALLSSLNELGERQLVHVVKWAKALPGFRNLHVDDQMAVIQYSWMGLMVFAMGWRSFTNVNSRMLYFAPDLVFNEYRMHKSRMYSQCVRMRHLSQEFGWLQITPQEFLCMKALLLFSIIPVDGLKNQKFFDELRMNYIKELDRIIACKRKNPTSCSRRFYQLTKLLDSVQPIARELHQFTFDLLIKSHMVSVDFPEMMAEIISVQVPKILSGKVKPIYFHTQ
Test: IR Binding Assay: whole cell competitive binding of test compounds against 3H-DHT in COS-1 cells transfected with pRShAR
Details: not given
How it was run: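 COS-1 cells transfected with pRShAR plus β-Gal reporter, serum-starved 24 h, then exposed to 1 nM ³H-DHT with compounds at 10^−10 to 10^−6 M for 3 h at 37 °C. Bound ³H-DHT counted in lysates, normalized to β-Gal. IC50 from log-logit plot; Ki via Cheng-Prusoff using Kd from Scatchard saturation analysis.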

Structure (SMILES) | Ki [nM]
CCCc1c(C)[nH]c2ccc3[nH]c(=O)cc(Cl)c3c12 [Compound 124, 9-Chloro-2-methyl-1-propyl-3,6-dihydro-pyrrolo[3,2-f]quinolin-7-one] | > 10
Cc1c(-c2ccccn2)n(CC(F)(F)C(F)(F)F)c2ccc3[nH]c(=O)cc(Cl)c3c12 [Compound 265, 9-Chloro-1-methyl-3-(2,2,3,3,3-pentafluoropropyl)-2-(2-pyridyl)-3,6-dihydro-pyrrolo[3,2-f]quinolin-7-one] | < 5
Cc1c(-c2nccs2)n(CC(F)(F)F)c2ccc3[nH]c(=O)cc(Cl)c3c12 [Compound 252, 9-Chloro-1-methyl-2-(1,3-thiazol-2-yl)-3-(2,2,2-trifluoroethyl)-3,6-dihydro-pyrrolo[3,2-f]-quinolin-7-one] | < 5
Cc1c(C)n(CC(F)(F)F)c2cc(F)c3[nH]c(=O)cc(Cl)c3c12 [Compound 195, 9-Chloro-1,2-dimethyl-5-fluoro-3-(2,2,2-trifluoroethyl)-3,6-dihydro-pyrrolo[3,2-f]quinolin-7-one] | < 5
Cc1c(-c2ccccc2F)[nH]c2ccc3[nH]c(=O)cc(Cl)c3c12 [Compound 119, 9-Chloro-2-(2-fluorophenyl)-1-methyl-3,6-dihydro-pyrrolo[3,2-f]quinolin-7-one] | < 5
CCC1C(C)c2c(ccc3[nH]c(=O)cc(C(F)(F)F)c23)N1CC(F)(F)Cl (racemic) [Compound 178, (±)-3-(2-Chloro-2,2-difluoroethyl)-2-ethyl-1-methyl-9-trifluoromethyl-1,2,3,6-tetrahydro-pyrrolo[3,2-f]quinolin-7-one] | < 5
O=c1cc(Cl)c2c3c(ccc2[nH]1)N(CC(F)(F)F)[C@H]1CCC[C@@H]31 [Compound 163, (−)-9-Chloro-3-(2,2,2-trifluoroethyl)-1,2-trimethylene-1,2,3,6-tetrahydropyrrolo[3,2-f]-quinolin-7-one] | > 10
Cc1c(-c2ccco2)n(C[C@H](O)C(F)(F)F)c2ccc3[nH]c(=O)cc(Cl)c3c12 [Compound 277, (S)-9-Chloro-2-(2-furyl)-1-methyl-3-(3,3,3-trifluoro-2-hydroxy-propyl)-3,6-dihydro-pyrrolo[3,2-f]quinolin-7-one] | < 5
Cc1ccc(-c2c(C)c3c4c(Cl)cc(=O)[nH]c4ccc3n2CC(F)(F)F)s1 [Compound 258, 9-Chloro-1-methyl-2-(5-methyl-2-thiophenyl)-3-(2,2,2-trifluoroethyl)-3,6-dihydro-pyrrolo[3,2-f]quinolin-7-one] | < 5

Same assay, conditions: competition with 1 nM 3H-DHT, transfected COS-1 cells, 3 h at 37° C., Cheng-Prusoff from IC50; read-out: Ki

Structure (SMILES) | Ki [nM]
Cc1c(-c2ccc(Cl)cc2)n(CC(F)(F)F)c2ccc3[nH]c(=O)cc(Cl)c3c12 [Compound 206, 9-Chloro-2(4-chlorophenyl)-1-methyl-3-(2,2,2-trifluoroethyl)-3,6-dihydro-pyrrolo[3,2-f]quinolin-7-one] | > 10
CCOC(=O)c1[nH]c2ccc3[nH]c(=O)cc(Cl)c3c2c1C [Compound 111, 9-Chloro-1-methyl-7-oxo-6,7-dihydro-3H-pyrrolo[3,2-f]quinoline-2-carboxylic acid ethyl ester] | > 10
